The structures appear in SMILES notation.

One experiment concerns BT-474 cancer cells. Kind of experiment: Inhibitory activity against proliferation of BT-474 cancer cells (CellTiter-Glo). The format is cell-based. As to conditions: Homo sapiens, BT-474 ErbB2-overexpressing cancer cells, 120 hours after treatment. On the procedure:
To evaluate the inhibitory activity of a compound according to the present invention against the proliferation of ErbB2-overexpressing cancer cells, the following experiment were performed.
10% FBS-added McCOY'S 5A was used for SK-BR-3 cancer cells. 20% FBS-added RPMI-1640 was used for BT-474 cancer cells. Transduced Ba/F3 cells were cultured in a RPMI-1640 medium to which 1 μg/ml puromycin (Invitrogen) was added.
48 hours before compound treatment, each type of the SK-BR-3 and BT-474 cells were seeded at 5,000 cells/well in a white clear bottom 96 well plate (Corning). The compound was diluted in dimethyl sulfoxide (SK-BR-3: 3-fold dilution, a total of 12 concentrations, BT-474: […], a total of 12 concentrations) and injected at 1 μl to have the final concentration of 0.2 nM to 5 μM. As for measurement of live cells, 120 hours after treatment with the compound, a CellTiter-Glo luminescent cell-viability reagent (Promega) was used to store the cells at room temperature for 10 minutes, followed by measurement of luminescence using a reader (SynergyNeo, Biotek). Each test was repeated three times.
The result values were calculated as a cell growth rate (%) compared to the control group. A graph was plotted using the GraphPad Prism version 8.3.0 program, and GI50 values were calculated.
On the technique in general: Cellular ATP, detected with luciferase, serves as a proxy for viable cell number.

The subject of a further experiment is SK-BR-3 cancer cells. The experiment is described as follows: Inhibitory activity against proliferation of SK-BR-3 cancer cells (CellTiter-Glo). The format is cell-based. The following applies: Homo sapiens, SK-BR-3, 120 h, ErbB2-overexpressing SK-BR-3 cells, 120 hours after treatment. The essentials: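 GI50 derived from % growth relative to control, measured by CellTiter-Glo luminescence after 120 h compound exposure (12 concentrations, 0.2 nM-5 μM final, n=3). BT-474 grown in RPMI-1640/20% FBS, SK-BR-3 in McCOY'S 5A/10% FBS; seeding 48 h pre-treatment.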

For `C=CC(=O)Nc1cc(Nc2cc(N3OCC[C@@H]3c3cccc(C(=O)NC(C)C)c3)ncn2)c(OC)cc1N1CCC(N2CCN(C3CC3)CC2)CC1` [Example 253, (R)-3-(2-(6-((5-acrylamido-4-(4-(4-cyclopropyl-piperazin-1-yl)-piperidin-1-yl)-2-methoxyphenyl)-amino)pyrimidin-4-yl)isoxazolidin-3-yl)-N-isopropyl-benzamide], the GI50 in the experiment with BT-474 cancer cells and in the experiment with SK-BR-3 cancer cells was under 50 nM in each case.

With `C=CC(=O)Nc1cc(Nc2cc(N3OCCC3c3cccc(-c4cc(F)cc(F)c4)c3)ncn2)c(OC)cc1N(C)CCN(C)C` (centres unmarked) [Example 265, N-(5-((6-(3-(3′,5′-difluoro-[1,1′-biphenyl]-3-yl)-isoxazolidin-2-yl)-pyrimidin-4-yl)-amino)-2-((2-(dimethylamino)-ethyl)(methyl)-amino)-4-meth-oxyphenyl)acryl-amide], the GI50 in the experiment on BT-474 cancer cells and in the experiment with SK-BR-3 cancer cells was under 50 nM each time.

As for `C=CC(=O)Nc1cc(Nc2cc(N3OCC[C@@H]3c3cccc(-c4cc(F)cc(F)c4)c3)ncn2)c(OC)cc1N1CCC(N2CCN(C3CC3)[C@@H](C)C2)CC1` [Example 274, N-(2-(4-((S)-4-cyclopropyl-3-methylpiperazin-1-yl)piperidin-1-yl)-5-((6-((R)-3-(3′,5′-difluoro-[1,1′-biphenyl]-3-yl)isoxazolidin-2-yl)pyrimidin-4-yl)amino)-4-meth-oxyphenyl)acryl-amide], the GI50 with BT-474 cancer cells and in the experiment on SK-BR-3 cancer cells was under 50 nM in each case.

Turning to `C=CC(=O)Nc1cc(Nc2cc(N3OCC[C@@H]3c3cccc(-c4cc(F)cc(F)c4)c3)ncn2)c(OC)cc1N1CCN(C(C)=O)CC1` [Example 275, (R)-N-(2-(4-acetyl-piperazin-1-yl)-5-((6-(3-(3′,5′-difluoro-[1,1′-biphenyl]-3-yl)-isoxazolidin-2-yl)-pyrimidin-4-yl)-amino)-4-meth-oxyphenyl)acryl-amide], the GI50 in the experiment with BT-474 cancer cells and in the experiment with SK-BR-3 cancer cells was under 50 nM in each case.

Regarding `C=CC(=O)Nc1cc(Nc2cc(N3OCC[C@@H]3c3cccc(-c4cc(F)cc(F)c4)c3)ncn2)c(OC)cc1N1CCN(C)CC1` [Example 276, (R)-N-(5-((6-(3-(3′,5′-difluoro-[1,1′-biphenyl]-3-yl)isoxazolidin-2-yl)pyrimidin-4-yl)-amino)-4-methoxy-2-(4-methylpiper-azin-1-yl)phenyl)-acrylamide], the GI50 in the experiment with BT-474 cancer cells and in the experiment with SK-BR-3 cancer cells was under 50 nM each time.

`C=CC(=O)Nc1cc(Nc2cc(N3OCC[C@@H]3c3cccc(-c4cc(F)cc(F)c4)c3)ncn2)c(OC)cc1N1CCN(CCC)CC1` [Example 278, (R)-N-(5-((6-(3-(3′,5′-difluoro-[1,1′-biphenyl]-3-yl)isoxazolidin-2-yl)pyrimidin-4-yl)-amino)-4-methoxy-2-(4-propylpiper-azin-1-yl)phenyl)-acrylamide]: the GI50 in the experiment on BT-474 cancer cells and in the experiment on SK-BR-3 cancer cells was under 50 nM throughout.

As to `C=CC(=O)Nc1cc(Nc2cc(N3OCC[C@@H]3c3cccc(-c4ccc(F)cc4F)c3)ncn2)c(OC)cc1N(C)CCN(C)C` [Example 279, (R)-N-(5-((6-(3-(2′,4′-difluoro-[1,1′-biphenyl]-3-yl)isoxazolidin-2-yl)pyrimidin-4-yl)amino)-2-((2-(dimethylamino)-ethyl)(methyl)-amino)-4-methoxy-phenyl)acrylamide], the GI50 with BT-474 cancer cells and with SK-BR-3 cancer cells was under 50 nM in each case.

For `C=CC(=O)Nc1cc(Nc2cc(N3OCC[C@@H]3c3cccc(-c4cccc(C(F)(F)F)c4F)c3)ncn2)c(OC)cc1N(C)CCN(C)C` [Example 280, (R)-N-(2-((2-(dimethylamino)-ethyl)(methyl)-amino)-5-((6-(3-(2′-fluoro-3′-(trifluoromethyl)-[1,1′-biphenyl]-3-yl)isoxazolidin-2-yl)pyrimidin-4-yl)-amino)-4-methoxy-phenyl)acrylamide], the GI50 in the experiment on BT-474 cancer cells and with SK-BR-3 cancer cells was under 50 nM throughout.

Take `C=CC(=O)Nc1cc(Nc2cc(N3OCC[C@@H]3c3cccc(-c4ccc(F)cc4F)c3)ncn2)c(OC)cc1N1CCN(C)CC1` [Example 281, (R)-N-(5-((6-(3-(2′,4′-difluoro-[1,1′-biphenyl]-3-yl)isoxazolidin-2-yl)pyrimidin-4-yl)-amino)-4-methoxy-2-(4-methylpiper-azin-1-yl)phenyl)-acrylamide]: the GI50 in the experiment on BT-474 cancer cells and in the experiment on SK-BR-3 cancer cells was under 50 nM in each case.

As to `C=CC(=O)Nc1cc(Nc2cc(N3OCC[C@@H]3c3cccc(-c4cccc(C(F)(F)F)c4F)c3)ncn2)c(OC)cc1N1CCN(C)CC1` [Example 282, (R)-N-(5-((6-(3-(2′-fluoro-3′-(tri-fluoromethyl)-[1,1′-biphenyl]-3-yl)isoxazolidin-2-yl)pyrimidin-4-yl)-amino)-4-methoxy-2-(4-methylpiper-azin-1-yl)phenyl)-acrylamide], the GI50 (commonly the concentration giving 50% growth inhibition) was under 50 nM with BT-474 cancer cells and 50 to 500 nM in the experiment with SK-BR-3 cancer cells.

In the case of `C=CC(=O)Nc1cc(Nc2cc(N3OCC[C@@H]3c3cccc(-c4cc(F)cc(C(F)(F)F)c4)c3)ncn2)c(OC)cc1N1CCN(C)CC1` [Example 283, (R)-N-(5-((6-(3-(3′-fluoro-5′-(trifluoromethyl)-[1,1′-biphenyl]-3-yl)isoxazolidin-2-yl)pyrimidin-4-yl)-amino)-4-methoxy-2-(4-methylpiper-azin-1-yl)phenyl)-acrylamide], the results for the GI50 with BT-474 cancer cells and in the experiment with SK-BR-3 cancer cells were under 50 nM and 50 to 500 nM, respectively.

Take `C=CC(=O)Nc1cc(Nc2cc(N3OCC[C@@H]3c3cccc(-c4cccc(F)c4F)c3)ncn2)c(OC)cc1N1CCN(C)CC1` [Example 284, (R)-N-(5-((6-(3-(2′,3′-difluoro-[1,1′-biphenyl]-3-yl)isoxazolidin-2-yl)pyrimidin-4-yl)-amino)-4-methoxy-2-(4-methylpiper-azin-1-yl)phenyl)-acrylamide]: the GI50 with BT-474 cancer cells and with SK-BR-3 cancer cells was under 50 nM each time.

For `COc1cc(N2CCN(C)CC2)c(NC(=O)/C=C/CN(C)C)cc1Nc1cc(N2OCC[C@@H]2c2cccc(-c3cccc(F)c3)c2)ncn1` [Example 285, (R,E)-4-(dimethyl-amino)-N-(5-((6-(3-(3′-fluoro-[1,1′-biphenyl]-3-yl)-isoxazolidin-2-yl)-pyrimidin-4-yl)-amino)-4-methoxy-2-(4-methylpiper-azin-1-yl)phenyl)-but-2-enamide], the GI50 in the experiment on BT-474 cancer cells and in the experiment on SK-BR-3 cancer cells was under 50 nM throughout.

For `C=CC(=O)Nc1cc(Nc2cc(N3OCC[C@@H]3c3cccc(-c4cccc(F)c4)c3)ncn2)c(OC)cc1N1CCO[C@@H](C)C1` [Example 286, N-(5-((6-((R)-3-(3′-fluoro-[1,1′-biphenyl]-3-yl)-isoxazolidin-2-yl)-pyrimidin-4-yl)-amino)-4-methoxy-2-((S)-2-methyl-morpholino)phen-yl)acrylamide], the GI50 with BT-474 cancer cells and in the experiment with SK-BR-3 cancer cells was under 50 nM each time.

In the case of `C=CC(=O)Nc1cc(Nc2cc(N3OCC[C@@H]3c3cccc(-c4cccc(F)c4)c3)ncn2)c(OC)cc1N1C[C@H]2C[C@@H]1CO2` [Example 287, N-(2-((1R,4R)-2-oxa-5-azabicyclo-[2.2.1]heptan-5-yl)-5-((6-((R)-3-(3′-fluoro-[1,1′-biphenyl]-3-yl)-isoxazolidin-2-yl)-pyrimidin-4-yl)-amino)-4-meth-oxyphenyl)acryl-amide], the GI50 with BT-474 cancer cells and in the experiment with SK-BR-3 cancer cells was under 50 nM each time.

Take `C=CC(=O)Nc1cc(Nc2cc(N3OCC[C@@H]3c3cccc(-c4cccc(F)c4)c3)ncn2)c(OC)cc1N1CCN(C)C(=O)C1` [Example 288, (R)-N-(5-((6-(3-(3′-fluoro-[1,1′-biphenyl]-3-yl)-isoxazolidin-2-yl)-pyrimidin-4-yl)-amino)-4-meth-oxy-2-(4-methyl-3-oxopiperazin-1-yl)phenyl)acryl-amide]: the GI50 in the experiment on BT-474 cancer cells and in the experiment on SK-BR-3 cancer cells was under 50 nM throughout.

`C=CC(=O)Nc1cc(Nc2cc(N3OCC[C@@H]3c3cccc(-c4cccc(F)c4)c3)ncn2)c(OC)cc1N1CCN(C(C)=O)CC1` [Example 289, (R)-N-(2-(4-acetyl-piperazin-1-yl)-5-((6-(3-(3′-fluoro-[1,1′-biphenyl]-3-yl)isoxazolidin-2-yl)pyrimidin-4-yl)-amino)-4-methoxy-phenyl)acrylamide]: the GI50 with BT-474 cancer cells and with SK-BR-3 cancer cells was under 50 nM each time.

As for `C=CC(=O)Nc1cc(Nc2cc(N3OCC[C@@H]3c3cccc(-c4cccc(F)c4)c3)ncn2)c(OC)cc1N1CCS(=O)(=O)CC1` [Example 290, (R)-N-(2-(1,1-dioxidothiomorph-olino)-5-((6-(3-(3′-fluoro-[1,1′-biphen-yl]-3-yl)isoxazol-idin-2-yl)pyrim-idin-4-yl)amino)-4-methoxyphen-yl)acrylamide], the GI50 in the experiment on BT-474 cancer cells and with SK-BR-3 cancer cells was under 50 nM in each case.

Take `C=CC(=O)Nc1cc(Nc2cc(N3OCC[C@@H]3c3cccc(-c4cccc(F)c4)c3)ncn2)c(OC)cc1N1C[C@@H](C)O[C@@H](C)C1` [Example 292, N-(2-((2S,6R)-2,6-dimethylmorpho-lino)-5-((6-((R)-3-(3′-fluoro-[1,1′-biphenyl]-3-yl)-isoxazolidin-2-yl)-pyrimidin-4-yl)-amino)-4-methoxy-phenyl)acrylamide]: the GI50 in the experiment with BT-474 cancer cells and in the experiment on SK-BR-3 cancer cells was under 50 nM throughout.

These data come from patent publication US20240262815A1, “HETEROARYL DERIVATIVE, METHOD FOR PREPARING SAME, AND PHARMACEUTICAL COMPOSITION COMPRISING SAME AS ACTIVE INGREDIENT” (VORONOI INC., priority 2021, published 2024).
